Laboratory results: US20120230951A1 (priority 2011, published 2012)
Where two headings read alike, the source gives them in different places.

Key:
[1] = system: GT-1a pRLuc H771b 75 S/I subgenomic replicon cell line; assay: HCV GT-1a replicon luciferase reporter assay; assay type: cell-based; settings: Hepatitis C virus, GT1A, 72 h, read-out: GT-1a (IC50) (nM)
Method in brief: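 Huh-7-derived subgenomic replicon cells (GT-1b Con1 2209-23, 5000/well; GT-1a H77 chimera with Con1 NS3 first 75 aa, 3000/well) in 5% FBS DMEM; compounds added 24 h post-plating, 3-fold dilutions, 1% DMSO. Renilla luciferase read after 72 h; EC50 is 50% signal reduction versus untreated, non-linear fit.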

[2] = system: HCV GT1b replicon (2209-23 cell line, GT-1b Con1 subgenomic replicon in Huh-7); assay: HCV GT1b replicon luciferase reporter assay; assay type: cell-based; settings: Hepatitis C virus
From the text: Determination of compounds HCV GT1b inhibitory replicon activity using the replicon luciferase reporter assay
The 2209-23 cell line was developed at Roche by stable transfection of the hepatoma cell line Huh-7 with a GT-1b Con1 subgenomic bicistronic replicon as previously described. Subgenomic replicon cell line was established in cured Huh7 cells, obtained from R. Bartenschlager (J. Virol. 2003 March; 77 (5):3007-19) The GT-1a H77 subgenomic replicon vector pRLuc H771b 75 S/I, was created by replacing the non structural region of the GT-1b Con1 subgenomic replicon by the one of the H77 strain, except for the first 75 amino acids of the NS3 protein that are from GT-1b Con1 strain. (J. Virol. 2001 77:5352-59) The GT-1a pRLuc H771b 75 S/I subgenomic replicon cell line was established in cured Huh7 cells, obtained from R. Bartenschlager. (J. Virol. 2003 March; 77 (5):3007-19)
All the subgenomic replicon cell lines were cultured in Dulbecco's Modified Eagle Medium (DMEM-Glutamax™-I; Invitrogen Cat #10569-010). The medium was supplemented with 10% Fetal Bovine Serum (Invitrogen Cat #10082-147), 1% penicillin/streptomycin (Mediatech Cat #30-002-CI) and 500 μg/ml of G418 (Mediatech Cat #30-234-CI). Cells were maintained at 37° C. in a humidified 5% CO2 atmosphere.
2209-23 cells were plated at a cell density of 5000 cells per well in 96 well plates (Becton Dickinson, Cat #35 3296). Cells were plated in 90 μl of Dulbecco's Modified Eagle Medium (DMEM-Glutamax™-I), (Invitrogen Cat #10569-010) medium was supplemented with 5% Fetal Bovine Serum (Invitrogen Cat #10082-147), 1% penicillin/streptomycin (Mediatech Cat #30-002-CI). The pRluc H771b 75 S/I cells were plated in 96-well plate at 3000 cells/well in DMEM-Glutamax™-I containing 5% FBS and 1% penicillin/streptomycin in 90 μl final volume. Cells were allowed to equilibrate for 24 hours at 37° C. and 5% CO2 at which time compounds were added. Compounds (or medium as a control) were added 24 hours post-plating in 3 fold dilutions at a final DMSO concentration of 1% in 10 ul volume. Renilla luciferase reporter signal was read 72 hours after addition of compounds using the Renilla Luciferase Assay System (Promega, cat #E2820). EC50 values were defined as the compound concentration at which a 50% reduction in the levels of renilla luciferase reporter was observed as compared to control samples in the absence of compound and was determined by non-linear fitting of compound dose-response data. The EC50 was approximated if maximum percentage inhibition was less than 90% and more than 70%.

[3] = Huh-7, 2209-23 cells (GT-1b Con1), Renilla luciferase read 72 hours after addition of compounds, read-out: GT-1b (IC50)

Structure (SMILES): COC(=O)N[C@H]1CCc2cccc3c2N(C1=O)[C@H](c1nc2ccc(-c4ccc(-c5cnc([C@@H]6CCCN6C(=O)[C@@H](NC(=O)OC)C(C)C)[nH]5)cc4)cc2[nH]1)C3 [Compound I-10, {(2S,5S)-2-[6-(4-{2-[(S)-1-((S)-2-Methoxycarbonylamino-3-methyl-butyryl)-pyrrolidin-2-yl]-3H-imidazol-4-yl}-phenyl)-1H-benzoimidazol-2-yl]-4-oxo-1,2,4,5,6,7-hexahydro-azepino[3,2,1-hi]indol-5-yl}-carbamic acid methyl ester]
- IC50 [1]: 43.3 nM
- IC50 [2, 3]: 0.1 nM

Structure (SMILES): COC(=O)N[C@H]1CCc2cccc3c2N(C1=O)[C@H](c1nc2ccc(-c4ccc(-c5ccc(-c6cnc([C@@H]7CCCN7C(=O)[C@@H](NC(=O)OC)C(C)C)[nH]6)cc5)cc4)cc2[nH]1)C3 [Compound I-11, {(2S,5S)-2-[6-(4′-{2-[(S)-1-((S)-2-Methoxycarbonylamino-3-methyl-butyryl)-pyrrolidin-2-yl]-3H-imidazol-4-yl}-biphenyl-4-yl)-1H-benzoimidazol-2-yl]-4-oxo-1,2,4,5,6,7-hexahydro-azepino[3,2,1-hi]indol-5-yl}-carbamic methyl ester]
- IC50 [1]: 19.2 nM
- IC50 [2, 3]: 2.82 nM

Structure (SMILES): COC(=O)N[C@H]1CCc2cccc3c2N(C1=O)[C@H](c1ncc(-c2cnc4cc(-c5ccc(-c6cnc([C@@H]7CC(F)(F)CN7C(=O)[C@@H](NC(=O)OC)C(C)C)[nH]6)cc5)ccc4c2)[nH]1)C3 [Compound I-19, ((2S,5S)-2-{5-[7-(4-{2-[(S)-1-((S)-2-Methoxycarbonylamino-3-methyl-butyryl)-4,4-difluoro-pyrrolidin-2-yl]-3H-imidazol-4-yl}-phenyl)-quinolin-3-yl]-1H-imidazol-2-yl}-4-oxo-1,2,4,5,6,7-hexahydro-azepino[3,2,1-hi]indol-5-yl)-carbamic acid methyl ester trifluroacetic acid]
- IC50 [1]: 2.89 nM
- IC50 ([2]; Huh-7, 72 h, read-out: GT-1b (IC50) (nM)): 0.16 nM

Structure (SMILES): COC(=O)N[C@H]1CC(=O)c2cccc3c2N(C1=O)[C@H](c1ncc(-c2ccc(-c4ccc(-c5cnc([C@@H]6CCCN6C(=O)[C@@H](NC(=O)OC)C(C)C)[nH]5)cc4)cc2)[nH]1)C3 [Compound I-28, {(2S,5S)-2-[5-(4′-{2-[(S)-1-((S)-2-Methoxycarbonylamino-3-methyl-butyryl)-pyrrolidin-2-yl]-3H-imidazol-4-yl}-biphenyl-4-yl)-1H-imidazol-2-yl]-4,7-dioxo-1,2,4,5,6,7-hexahydro-azepino[3,2,1-hi]indol-5-yl}-carbamic acid methyl ester]
- IC50 [1]: 1.81 nM
- IC50 [2, 3]: 0.01 nM

Structure (SMILES): COC(=O)N[C@H]1CC(O)c2cccc3c2N(C1=O)[C@H](c1ncc(-c2ccc(-c4ccc(-c5cnc([C@@H]6CCCN6C(=O)[C@@H](NC(=O)OC)C(C)C)[nH]5)cc4)cc2)[nH]1)C3 (stereo partly drawn) [Compound I-29, {(2S,5S)-7-Hydroxy-2-[5-(4′-{2-[(S)-1-((S)-2-methoxycarbonylamino-3-methyl-butyryl)-pyrrolidin-2-yl]-3H-imidazol-4-yl}-biphenyl-4-yl)-1H-imidazol-2-yl]-4-oxo-1,2,4,5,6,7-hexahydro-azepino[3,2,1-hi]indol-5-yl}-carbamic acid methyl ester]
- IC50 [1]: 1.02 nM
- IC50 [2, 3]: 0.01 nM

Structure (SMILES): COC(=O)N[C@H]1CCc2cccc3c2N(C1=O)[C@H](c1ncc(-c2ccc(-c4ccc5cc(-c6cnc([C@@H]7CCCN7C(=O)[C@@H](NC(=O)OC)C(C)C)[nH]6)ccc5c4)cc2)[nH]1)C3 [Compound I-31, {(2S,5S)-2-[5-(4-(6-{2-[(S)-1-((S)-2-Methoxycarbonylamino-3-methyl-butyryl)-pyrrolidin-2-yl]-3H-imidazol-4-yl}-naphthalen-2-yl)-phenyl)-1H-imidazol-2-yl]-4-oxo-1,2,4,5,6,7-hexahydro-azepino[3,2,1-hi]indol-5-yl}-carbamic acid methyl ester]
- IC50 [1]: 1.13 nM
- IC50 [2, 3]: 0.41 nM

Structure (SMILES): COC(=O)N[C@H]1CCc2cccc3c2N(C1=O)[C@H](c1ncc(-c2ccc(-c4ccc(-c5cnc([C@@H]6CCCN6C(=O)[C@@H](NC(=O)OC)C(C)C)[nH]5)cc4)c(F)c2)[nH]1)C3 [Compound I-35, {(2S,5S)-2-[5-(2-Fluoro-4′-{2-[(S)-1-((S)-2-methoxycarbonylamino-3-methyl-butyryl)-pyrrolidin-2-yl]-1H-imidazol-4-yl}-biphenyl-4-yl)-1H-imidazol-2-yl]-4-oxo-1,2,4,5,6,7-hexahydro-azepino[3,2,1-hi]indol-5-yl}-carbamic acid methyl ester]
- IC50 [1]: 5.92 nM
- IC50 [2, 3]: 0.01 nM

Structure (SMILES): COC(=O)N[C@@H](CCS(C)(=O)=O)C(=O)N1CCC[C@H]1c1ncc(-c2ccc(-c3ccc(-c4cnc([C@@H]5Cc6cccc7c6N5C(=O)[C@@H](NC(=O)OC)CC7)[nH]4)cc3)cc2)[nH]1 [Compound I-51, {(2S,5S)-2-[5-(4-{2-[(S)-1-((S)-4-Methanesulfonyl-2-methoxycarbonylamino-butyl)-pyrolidin-2-yl]-3H-imidazol-4-yl}-biphenyl-4-yl)-1H-imidazol-2-yl]-4-oxo-1,2,4,5,6,7-hexahydro-azepino[3,2,1-hi]indol-5-yl}-carbamic acid methyl ester]
- IC50 [1]: 16.6 nM
- IC50 [2, 3]: 0.03 nM

Structure (SMILES): COC(=O)N[C@H]1CCc2cccc3c2N(C1=O)[C@H](c1ncc(-c2ccc(-c4cnc5cc(-c6cnc([C@@H]7CCCN7C(=O)[C@@H](NC(=O)OC)C(C)C)[nH]6)ccc5n4)cc2)[nH]1)C3 [Compound I-52, ((2S,5S)-2-{5-[4-(6-{2-[(S)-1-((S)-2-Methoxycarbonylamino-3-methyl-butyryl)-pyrrolidin-2-yl]-3H-imidazol-4-yl}-quinoxalin-2-yl)-phenyl]-1H-imidazol-2-yl}-4-oxo-1,2,4,5,6,7-hexahydro-azepino[3,2,1-hi]indol-5-yl)-carbamicacid methyl ester]
- IC50 [1]: 0.41 nM
- IC50 [2, 3]: 0.03 nM

Structure (SMILES): COC(=O)N[C@H]1CCc2cccc3c2N(C1=O)[C@H](c1ncc(-c2ccc(-c4cnc5cc(-c6cnc([C@@H]7CCCN7C(=O)[C@H](NC(=O)OC)c7ccccc7)[nH]6)ccc5n4)cc2)[nH]1)C3 [Compound I-55, ((2S,5S)-2-{5-[4-(6-{2-[(S)-1-((R)-2-Methoxycarbonylamino-2-phenyl-acetyl)-pyrrolidin-2-yl]-3H-imidazol-4-yl}-quinoxalin-2-yl)-phenyl]-1H-imidazol-2-yl}-4-oxo-1,2,4,5,6,7-hexahydro-azepino[3,2,1-hi]indol-5-yl)-carbamic acid methyl ester]
- IC50 [1]: 0.79 nM
- IC50 [2, 3]: 0.01 nM

Structure (SMILES): COC(=O)N[C@H]1CCc2cccc3c2N(C1=O)[C@H](c1ncc(-c2ccc4nc(-c5ccc(-c6cnc([C@@H]7CCCN7C(=O)[C@@H](NC(=O)OC)C(C)C)[nH]6)cc5)cnc4c2)[nH]1)C3 [Compound I-59, ((2S,5S)-2-{5-[2-(4-{2-[(S)-1-((S)-2-Methoxycarbonylamino-3-methyl-butyryl)-pyrrolidin-2-yl]-3H-imidazol-4-yl}-phenyl)-quinoxalin-6-yl]-1H-imidazol-2-yl}-4-oxo-1,2,4,5,6,7-hexahydro-azepino[3,2,1-hi]indol-5-yl)-carbamic acid methyl ester]
- IC50 [1]: 0.709 nM
- IC50 [2, 3]: 0.07 nM
